Target: PD-1/PD-L1 interaction (Homo sapiens, UniProt Q9NZQ7)
Assay: TR-FRET assay of PD-1/PD-L1 interaction inhibition
Type: binding
Settings: not given

PD-1/PD-L1 interaction, sequence (Q9NZQ7 19-238 limits assumed): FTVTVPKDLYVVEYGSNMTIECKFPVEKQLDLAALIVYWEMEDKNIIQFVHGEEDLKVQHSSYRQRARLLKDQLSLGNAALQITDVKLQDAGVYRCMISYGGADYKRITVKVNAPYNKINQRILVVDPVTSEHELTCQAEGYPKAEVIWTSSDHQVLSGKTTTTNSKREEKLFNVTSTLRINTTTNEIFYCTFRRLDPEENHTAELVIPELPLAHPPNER

SMILES	IC50
Cc1c(-c2ccccc2)cccc1N1C(=O)c2cc(CN3CCC[C@H]3C(=O)O)c(OCc3cccc(C#N)c3)cc2C1=O [P8]	52.1 nM
Cc1c(-c2ccccc2)cccc1N1C(=O)c2cc(CN[C@@H](CO)C(=O)OC(C)(C)C)c(OCc3cccc(C#N)c3)cc2C1=O [P29]	607 nM
Cc1c(-c2ccccc2)cccc1N1C(=O)c2cc(CNCCO)c(OCc3cccc(C#N)c3)cc2C1=O [P1]	45.4 nM
Cc1c(-c2ccccc2)cccc1N1C(=O)c2cc(CN[C@@H](CO)C(=O)O)c(OCc3cccc(C#N)c3)cc2C1=O [P30]	14 nM
Cc1c(-c2ccccc2)cccc1N1C(=O)c2cc(CN(C)CCO)c(OCc3cccc(C#N)c3)cc2C1=O [P19]	150 nM
Cc1c(-c2ccccc2)cccc1N1C(=O)c2cc(CN[C@@H](C)C(=O)OC(C)(C)C)c(OCc3cccc(C#N)c3)cc2C1=O [P36]	1670 nM
Cc1c(-c2ccccc2)cccc1N1C(=O)c2cc(CNCC(=O)OC(C)(C)C)c(OCc3cccc(C#N)c3)cc2C1=O [P32]	1160 nM
Cc1c(-c2ccccc2)cccc1N1C(=O)c2cc(CN[C@@H](C)C(=O)O)c(OCc3cccc(C#N)c3)cc2C1=O [P37]	11.6 nM
Cc1c(-c2ccccc2)cccc1N1C(=O)c2ccc(OCc3cccc(C#N)c3)c(CNC3CCOCC3)c2C1=O [P9]	1140 nM
Cc1c(-c2ccccc2)cccc1N1C(=O)c2cc(CN3CCC[C@H]3C(N)=O)c(OCc3cccc(C#N)c3)cc2C1=O [P26]	564 nM
Cc1c(-c2ccccc2)cccc1N1C(=O)c2cc(CNCCN(C)C)c(OCc3cccc(C#N)c3)cc2C1=O [P21]	189 nM
Cc1c(-c2ccccc2)cccc1N1C(=O)c2ccc(OCc3cccc(C#N)c3)c(CN3CCC[C@H]3C(=O)O)c2C1=O [P10]	4380 nM
N#Cc1cccc(COc2cc3c(cc2CN2CCC[C@H]2C(=O)O)C(=O)N(c2cccc(-c4ccccc4)c2Cl)C3=O)c1 [P14]	22.1 nM
Cc1c(-c2ccccc2)cccc1N1C(=O)c2cc(CNCCO)c(OCc3ccc(C#N)cc3)cc2C1=O [P4]	153 nM
Cc1c(-c2ccccc2)cccc1N1C(=O)c2cc(CN3CCOCC3)c(OCc3cccc(C#N)c3)cc2C1=O [P24]	738 nM
Cc1c(-c2ccccc2)cccc1N1C(=O)c2cc(CNC3CCOCC3)c(OCc3cccc(C#N)c3)cc2C1=O [P7]	45.6 nM
Cc1c(-c2ccccc2)cccc1N1C(=O)c2cc(CN3CCCC[C@H]3C(=O)O)c(OCc3cccc(C#N)c3)cc2C1=O [P11]	117 nM
Cc1c(-c2ccccc2)cccc1N1C(=O)c2cc(CN(C)CC(=O)OC(C)(C)C)c(OCc3cccc(C#N)c3)cc2C1=O [P34]	> 10000 nM
Cc1c(-c2ccccc2)cccc1N1C(=O)c2cc(CN[C@@H](Cc3ccccc3)C(=O)O)c(OCc3cccc(C#N)c3)cc2C1=O [P41]	527 nM

SMILES	IC50
Cc1c(-c2ccccc2)cccc1N1C(=O)c2cc(CN[C@H](C(=O)OC(C)(C)C)C(C)O)c(OCc3cccc(C#N)c3)cc2C1=O (some centres unmarked) [P38]	> 10000 nM
Cc1c(-c2ccccc2)cccc1N1C(=O)c2cc(CNCCO)c(OCc3ccccc3C#N)cc2C1=O [P3]	171 nM
CC(=O)NCCNCc1cc2c(cc1OCc1cccc(C#N)c1)C(=O)N(c1cccc(-c3ccccc3)c1C)C2=O [P18]	79.1 nM
COC(=O)CNCc1cc2c(cc1OCc1cccc(C#N)c1)C(=O)N(c1cccc(-c3ccccc3)c1C)C2=O [P31]	836 nM
Cc1c(-c2ccccc2)cccc1N1C(=O)c2cc(CN(C)CC(=O)O)c(OCc3cccc(C#N)c3)cc2C1=O [P35]	46.6 nM
N#Cc1cccc(COc2cc3c(cc2CN2CCC[C@H]2C(=O)O)C(=O)N(c2cccc(-c4ccccc4)c2F)C3=O)c1 [P16]	31.6 nM
Cc1c(-c2ccccc2)cccc1N1C(=O)c2cc(CN[C@@H](Cc3ccccc3)C(=O)OC(C)(C)C)c(OCc3cccc(C#N)c3)cc2C1=O [P40]	1690 nM
Cc1c(-c2ccccc2)cccc1N1C(=O)c2cc(CNCCNC(=O)OC(C)(C)C)c(OCc3cccc(C#N)c3)cc2C1=O [P20]	395 nM
N#Cc1cccc(COc2cc3c(cc2CNC2CCOCC2)C(=O)N(c2cccc(-c4ccccc4)c2Cl)C3=O)c1 [P13]	39.3 nM
Cc1c(-c2ccccc2)cccc1N1C(=O)c2cc(CNCCO)c(OCc3ccccc3)cc2C1=O [P5]	216 nM
Cc1c(-c2ccccc2)cccc1N1C(=O)c2cc(CN3CC(C(=O)O)C3)c(OCc3cccc(C#N)c3)cc2C1=O [P27]	42.4 nM
Cc1c(-c2ccccc2)cccc1N1C(=O)c2cc(CN3CCC[C@H]3CO)c(OCc3cccc(C#N)c3)cc2C1=O [P22]	251 nM
Cc1c(-c2ccccc2)cccc1N1C(=O)c2cc(CNCCO)c(OCc3ccc(C(C)C)cc3)cc2C1=O [P6]	921 nM
Cc1c(-c2ccccc2)cccc1N1C(=O)c2cc(CNCC(=O)O)c(OCc3cccc(C#N)c3)cc2C1=O [P33]	13.3 nM
N#Cc1cccc(COc2cc3c(cc2CN2CCCC[C@H]2C(=O)O)C(=O)N(c2cccc(-c4ccccc4)c2C#N)C3=O)c1 [P12]	100 nM
N#Cc1cccc(COc2cc3c(cc2CNC2CCOCC2)C(=O)N(c2cccc(-c4ccccc4)c2F)C3=O)c1 [P15]	58.7 nM
Cc1c(-c2ccccc2)cccc1N1C(=O)c2cc(CN3CC[C@@H](O)C3)c(OCc3cccc(C#N)c3)cc2C1=O [P23]	216 nM
Cc1c(-c2ccccc2)cccc1N1C(=O)c2cc(CN3CC(O)C3)c(OCc3cccc(C#N)c3)cc2C1=O [P25]	187 nM
Cc1c(-c2ccccc2)cccc1N1C(=O)c2cc(CN[C@H](C(=O)O)C(C)O)c(OCc3cccc(C#N)c3)cc2C1=O (some centres unmarked) [P39]	8.9 nM

Test system: A375 cells
Assay: Cytotoxicity evaluation by Real-Time Cell Analyzing
Type: cell-based
Settings: 20 μmol/L of compound; RTCA; versus control group

SMILES	cytotoxicity, real-time growth of A375 cells
Cc1c(-c2ccccc2)cccc1N1C(=O)c2cc(CN3CCC[C@H]3C(=O)O)c(OCc3cccc(C#N)c3)cc2C1=O [P8]	essentially non-toxic to A375 cells
Cc1c(-c2ccccc2)cccc1N1C(=O)c2cc(CNCCO)c(OCc3cccc(C#N)c3)cc2C1=O [P1]	essentially non-toxic to A375 cells
Cc1c(-c2ccccc2)cccc1N1C(=O)c2cc(CN[C@@H](CO)C(=O)O)c(OCc3cccc(C#N)c3)cc2C1=O [P30]	essentially non-toxic to A375 cells
Cc1c(-c2ccccc2)cccc1N1C(=O)c2cc(CN[C@@H](C)C(=O)O)c(OCc3cccc(C#N)c3)cc2C1=O [P37]	essentially non-toxic to A375 cells
Cc1c(-c2ccccc2)cccc1N1C(=O)c2cc(CNCCO)c(OCc3ccc(C#N)cc3)cc2C1=O [P4]	essentially non-toxic to A375 cells
Cc1c(-c2ccccc2)cccc1N1C(=O)c2cc(CNCCO)c(OCc3ccccc3C#N)cc2C1=O [P3]	essentially non-toxic to A375 cells
Cc1c(-c2ccccc2)cccc1N1C(=O)c2cc(CNCC(=O)O)c(OCc3cccc(C#N)c3)cc2C1=O [P33]	essentially non-toxic to A375 cells
N#Cc1cccc(COc2cc3c(cc2CNC2CCOCC2)C(=O)N(c2cccc(-c4ccccc4)c2F)C3=O)c1 [P15]	essentially non-toxic to A375 cells
Cc1c(-c2ccccc2)cccc1N1C(=O)c2cc(CN[C@H](C(=O)O)C(C)O)c(OCc3cccc(C#N)c3)cc2C1=O (some centres unmarked) [P39]	essentially non-toxic to A375 cells

Target: PD-1/PD-L1 interaction on H460 cells (Homo sapiens, UniProt Q9NZQ7)
Assay: not given
Type: cell-based
Settings: 200 nmol/L; Fig. 4A and B

PD-1/PD-L1 interaction on H460 cells, sequence (Q9NZQ7 19-290): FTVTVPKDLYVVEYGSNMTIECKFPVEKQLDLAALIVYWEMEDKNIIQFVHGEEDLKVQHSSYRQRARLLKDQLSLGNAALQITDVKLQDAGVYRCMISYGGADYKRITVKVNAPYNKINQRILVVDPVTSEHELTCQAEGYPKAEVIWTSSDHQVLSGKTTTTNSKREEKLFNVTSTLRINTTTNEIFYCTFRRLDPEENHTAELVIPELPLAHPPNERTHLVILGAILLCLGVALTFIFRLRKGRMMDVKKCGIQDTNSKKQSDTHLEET

SMILES	inhibitory activity on PD-1 binding to tumor cells compared to BMS202
Cc1c(-c2ccccc2)cccc1N1C(=O)c2cc(CN[C@H](C(=O)O)C(C)O)c(OCc3cccc(C#N)c3)cc2C1=O (some centres unmarked) [P39]	stronger inhibitory activity compared to the positive compound BMS202

Same assay, conditions: P39 0–200 nmol/L, 24 h; flow cytometry and immunostaining

SMILES	binding capacity of PD-1 to H460 cells
Cc1c(-c2ccccc2)cccc1N1C(=O)c2cc(CN[C@H](C(=O)O)C(C)O)c(OCc3cccc(C#N)c3)cc2C1=O (some centres unmarked) [P39]	significantly decreased in a dose-dependent manner

Target: PD-1/PD-L1 interaction on MDA-MB-231 cells (Homo sapiens, UniProt Q9NZQ7)
Assay: not given
Type: cell-based
Settings: P39 0–200 nmol/L, 24 h; immunostaining

PD-1/PD-L1 interaction on MDA-MB-231 cells, sequence (Q9NZQ7 19-290): as above

SMILES	binding capacity of PD-1 to MDA-MB-231 cells
Cc1c(-c2ccccc2)cccc1N1C(=O)c2cc(CN[C@H](C(=O)O)C(C)O)c(OCc3cccc(C#N)c3)cc2C1=O (some centres unmarked) [P39]	significantly decreased in a dose-dependent manner

Test system: PD-1/PD-L1 interaction, H358 cells
Assay: PD-1/PD-L1 blockade bioassay
Type: cell-based
Settings: P39-treated H358 cells versus untreated cells; concentration-dependent

SMILES	transcriptional-mediated bioluminescent signal
Cc1c(-c2ccccc2)cccc1N1C(=O)c2cc(CN[C@H](C(=O)O)C(C)O)c(OCc3cccc(C#N)c3)cc2C1=O (some centres unmarked) [P39]	significant increase

Test system: H460 cells
Assay: PBMCs-mediated tumor cell-killing assay
Type: cell-based, human
Settings: P39 100 or 200 nmol/L, 24 h

SMILES	sensitivity of tumor cells to T cell killing (activated human PBMCs)
Cc1c(-c2ccccc2)cccc1N1C(=O)c2cc(CN[C@H](C(=O)O)C(C)O)c(OCc3cccc(C#N)c3)cc2C1=O (some centres unmarked) [P39]	greatly increased

Test system: not listed separately
Assay: Acute toxicity test
Type: in vivo, ICR mice
Settings: ICR, mouse, in vivo, po

SMILES	LD50 at 14 days
Cc1c(-c2ccccc2)cccc1N1C(=O)c2cc(CN[C@H](C(=O)O)C(C)O)c(OCc3cccc(C#N)c3)cc2C1=O (some centres unmarked) [P39]	> 5000 mg/kg

Same assay, conditions: oral single dose 5000 mg/kg, observed two weeks

SMILES	mortality and body weight loss
Cc1c(-c2ccccc2)cccc1N1C(=O)c2cc(CN[C@H](C(=O)O)C(C)O)c(OCc3cccc(C#N)c3)cc2C1=O (some centres unmarked) [P39]	no mortality and obvious body weight loss

Test system: MC38 tumor cells
Assay: In vivo antitumor activity, MC38 mouse model
Design: species or system C57BL/6 mice
Settings: 10 mg/kg i.p. once daily, 4 weeks

SMILES	tumor volume growth inhibition
Cc1c(-c2ccccc2)cccc1N1C(=O)c2cc(CN[C@H](C(=O)O)C(C)O)c(OCc3cccc(C#N)c3)cc2C1=O (some centres unmarked) [P39]	54.9%

Same assay, conditions: 25 mg/kg i.p. once daily, 4 weeks

SMILES	tumor volume growth inhibition
Cc1c(-c2ccccc2)cccc1N1C(=O)c2cc(CN[C@H](C(=O)O)C(C)O)c(OCc3cccc(C#N)c3)cc2C1=O (some centres unmarked) [P39]	68.3%

Same assay, conditions: 10 and 25 mg/kg groups versus control group

SMILES	final tumor weight
Cc1c(-c2ccccc2)cccc1N1C(=O)c2cc(CN[C@H](C(=O)O)C(C)O)c(OCc3cccc(C#N)c3)cc2C1=O (some centres unmarked) [P39]	significantly decreased

Same assay, conditions: 10 and 25 mg/kg i.p. once daily, 4 weeks

SMILES	weight loss or death of mice during treatment
Cc1c(-c2ccccc2)cccc1N1C(=O)c2cc(CN[C@H](C(=O)O)C(C)O)c(OCc3cccc(C#N)c3)cc2C1=O (some centres unmarked) [P39]	No weight loss or death of mice

Test system: Lewis lung carcinoma (LLC) cells overexpressing hPD-L1 (LLC-hPD-L1)
Assay: In vivo antitumor activity, humanized LLC-hPD-L1 mouse model
Design: species or system hPD-1-knockin C57BL/6 mice
Settings: P39 25 mg/kg

SMILES	tumor inhibitory effect compared with BMS202 (10 mg/kg)
Cc1c(-c2ccccc2)cccc1N1C(=O)c2cc(CN[C@H](C(=O)O)C(C)O)c(OCc3cccc(C#N)c3)cc2C1=O (some centres unmarked) [P39]	much better activity

Same assay, conditions: high dose, 25 mg/kg; 12 days of administration

SMILES	tumor inhibition rate
Cc1c(-c2ccccc2)cccc1N1C(=O)c2cc(CN[C@H](C(=O)O)C(C)O)c(OCc3cccc(C#N)c3)cc2C1=O (some centres unmarked) [P39]	79.0%

Same assay, conditions: low dose, 10 mg/kg

SMILES	inhibition rate of tumor growth
Cc1c(-c2ccccc2)cccc1N1C(=O)c2cc(CN[C@H](C(=O)O)C(C)O)c(OCc3cccc(C#N)c3)cc2C1=O (some centres unmarked) [P39]	66.2%

Test system: Lewis lung carcinoma (LLC) cells overexpressing hPD-L1 (LLC-hPD-L1)
Assay: In vivo antitumor activity on Balb/c-nude mice
Settings: P39 4, 10 and 25 mg/kg

SMILES	ability to clear tumor cells in immunodeficient mice
Cc1c(-c2ccccc2)cccc1N1C(=O)c2cc(CN[C@H](C(=O)O)C(C)O)c(OCc3cccc(C#N)c3)cc2C1=O (some centres unmarked) [P39]	no ability to clear tumor cells

Test system: T cells in TILs
Assay: Flow cytometry of tumor infiltrating lymphocytes, MC38 model
Type: in vivo, C57BL/6 mice
Settings: P39-treated mice versus control group; Fig. S6C

SMILES	population of CD4+ T cells in the tumor tissue
Cc1c(-c2ccccc2)cccc1N1C(=O)c2cc(CN[C@H](C(=O)O)C(C)O)c(OCc3cccc(C#N)c3)cc2C1=O (some centres unmarked) [P39]	did not change compared to the control group

Same assay, conditions: P39-treated mice; Fig. S6B and 6E

SMILES	ratio of CD8+ to CD3+ T cells in the tumor
Cc1c(-c2ccccc2)cccc1N1C(=O)c2cc(CN[C@H](C(=O)O)C(C)O)c(OCc3cccc(C#N)c3)cc2C1=O (some centres unmarked) [P39]	greatly increased

Test system: CD8, IFN-γ and GzmB expression
Assay: Immunohistochemistry
Type: in vivo, mice
Settings: IHC of tumor tissues; Fig. S8

SMILES	expression of CD8, IFN-γ, and GzmB
Cc1c(-c2ccccc2)cccc1N1C(=O)c2cc(CN[C@H](C(=O)O)C(C)O)c(OCc3cccc(C#N)c3)cc2C1=O (some centres unmarked) [P39]	increased expression

Reference: PMC9764071 (Acta Pharmaceutica Sinica. B, 2022)
